The IC50 is the point on the concentration scale where inhibition reaches its midpoint. Lower therefore signals greater potency in that assay.

One experiment has as its target Cholinesterase (Homo sapiens, UniProt P06276).
In a further experiment the target is Acetylcholinesterase (Homo sapiens, UniProt P22303).
Chain of Acetylcholinesterase (P22303 whole entry): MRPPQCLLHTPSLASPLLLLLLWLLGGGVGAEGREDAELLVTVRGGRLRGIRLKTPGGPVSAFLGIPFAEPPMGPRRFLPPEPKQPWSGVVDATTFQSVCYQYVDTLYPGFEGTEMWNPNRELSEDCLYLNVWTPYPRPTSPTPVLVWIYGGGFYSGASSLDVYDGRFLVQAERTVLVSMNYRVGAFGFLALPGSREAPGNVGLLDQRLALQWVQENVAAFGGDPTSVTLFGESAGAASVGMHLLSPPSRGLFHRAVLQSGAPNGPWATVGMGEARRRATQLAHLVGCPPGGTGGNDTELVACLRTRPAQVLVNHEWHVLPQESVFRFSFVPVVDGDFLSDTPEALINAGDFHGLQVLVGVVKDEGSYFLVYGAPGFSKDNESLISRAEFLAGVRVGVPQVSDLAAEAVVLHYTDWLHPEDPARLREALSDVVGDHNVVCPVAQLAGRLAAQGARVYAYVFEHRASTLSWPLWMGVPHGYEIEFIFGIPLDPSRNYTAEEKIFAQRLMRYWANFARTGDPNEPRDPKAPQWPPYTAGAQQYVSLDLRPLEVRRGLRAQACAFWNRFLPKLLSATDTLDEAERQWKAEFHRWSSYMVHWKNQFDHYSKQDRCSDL

Chain of Cholinesterase (P06276 whole entry): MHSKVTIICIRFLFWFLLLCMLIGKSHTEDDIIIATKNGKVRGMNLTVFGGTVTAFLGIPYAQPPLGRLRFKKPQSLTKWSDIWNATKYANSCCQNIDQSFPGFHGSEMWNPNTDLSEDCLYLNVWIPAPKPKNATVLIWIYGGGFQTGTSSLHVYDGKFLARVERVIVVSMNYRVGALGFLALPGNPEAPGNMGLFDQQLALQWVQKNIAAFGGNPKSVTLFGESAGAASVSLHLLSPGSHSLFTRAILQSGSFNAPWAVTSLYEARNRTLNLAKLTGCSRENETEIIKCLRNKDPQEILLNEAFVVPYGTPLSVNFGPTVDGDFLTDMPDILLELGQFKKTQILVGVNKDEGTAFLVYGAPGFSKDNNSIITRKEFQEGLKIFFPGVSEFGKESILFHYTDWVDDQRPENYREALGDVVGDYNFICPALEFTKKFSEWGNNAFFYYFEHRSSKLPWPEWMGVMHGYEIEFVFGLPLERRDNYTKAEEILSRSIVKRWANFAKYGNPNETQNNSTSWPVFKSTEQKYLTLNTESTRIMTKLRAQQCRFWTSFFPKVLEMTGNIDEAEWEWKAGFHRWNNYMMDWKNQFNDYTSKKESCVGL
Description for Acetylcholinesterase: Anticholinesterase activity against human erythrocyte AChE

On to `CC(C)c1ccc(NC(=O)Oc2ccc3c(c2)[C@@]2(C)CO[C@H](C2)O3)cc1`, for which half-maximal inhibition against Cholinesterase (IC50) required 15 nM.

Turning to `CCNC(=O)Oc1ccc2c(c1)[C@]1(C)CCO[C@@H]1O2`, the results for the IC50 against Acetylcholinesterase and on Cholinesterase were 100 nM and 3 nM, respectively.

The compound `CNC(=O)Oc1ccc2c(c1)[C@]1(C)CCO[C@@H]1N2C` came in with an IC50 at Cholinesterase of 4 nM.

For `CC(C)c1ccc(NC(=O)Oc2ccc3c(c2)[C@]2(C)CO[C@@H](C2)O3)cc1`, the IC50 at Acetylcholinesterase is 3430 nM; against Cholinesterase, 54 nM.

In the case of `Cc1ccccc1NC(=O)Oc1ccc2c(c1)[C@@]1(C)CCO[C@H]1N2C`, the IC50 turned out to be 142 nM against Acetylcholinesterase and 5100 nM against Cholinesterase.

Take `CCNC(=O)Oc1ccc2c(c1)[C@]1(C)CCN(C)[C@@H]1N2C`: the IC50 at Acetylcholinesterase amounted to 94 nM; on Cholinesterase, 4 nM.

In turn, `CC(C)c1ccc(NC(=O)Oc2ccc3c(c2)[C@@]2(C)CCO[C@H]2N3C)cc1` showed an IC50 on Cholinesterase of 23 nM.

Regarding `CNC(=O)Oc1ccc2c(c1)[C@@]1(C)CCO[C@H]1N2C`, the IC50 at Acetylcholinesterase and against Cholinesterase was 56 nM in each case.

Regarding `CCNC(=O)Oc1ccc2c(c1)[C@]1(C)CO[C@@H](C1)O2`, the IC50 against Acetylcholinesterase was 2420 nM; on Cholinesterase it was 120 nM.

On to `Cc1ccccc1NC(=O)Oc1ccc2c(c1)[C@@]1(C)CCO[C@H]1O2`, for which half-maximal inhibition against Cholinesterase (IC50) required 36400 nM.

On Cholinesterase, `CC(C)c1ccc(NC(=O)Oc2ccc3c(c2)[C@@]2(C)CCO[C@H]2O3)cc1` had an IC50 of 40 nM.

In the case of `CC(C)c1ccc(NC(=O)Oc2ccc3c(c2)[C@]2(C)CCO[C@@H]2O3)cc1`, the IC50 at Cholinesterase came to 13 nM.

Turning to `Cc1ccccc1NC(=O)Oc1ccc2c(c1)[C@]1(C)CO[C@@H](C1)O2`, half-maximal inhibition against Acetylcholinesterase (IC50) was put at 97 nM.

With `CCNC(=O)Oc1ccc2c(c1)[C@@]1(C)CCO[C@H]1O2`, the IC50 on Acetylcholinesterase turned out to be 486 nM; on Cholinesterase, 28 nM.

For the compound `Cc1ccccc1NC(=O)Oc1ccc2c(c1)[C@@]1(C)CO[C@H](C1)O2`, the figures for the IC50 against Acetylcholinesterase and against Cholinesterase were 38 nM and 52000 nM, respectively.

Turning to `CCNC(=O)Oc1ccc2c(c1)[C@@]1(C)CO[C@H](C1)O2`, the IC50 at Acetylcholinesterase was 610 nM; on Cholinesterase it was 23 nM.

Turning to `Cc1ccccc1NC(=O)Oc1ccc2c(c1)[C@@]1(C)CCN(C)[C@H]1N2C`, on Acetylcholinesterase, the IC50 stood at 5510 nM.

On to `CCNC(=O)Oc1ccc2c(c1)[C@]1(C)CCO[C@@H]1N2C`, for which the IC50 worked out at 82 nM at Acetylcholinesterase and 2 nM on Cholinesterase.

In the case of `CC(C)c1ccc(NC(=O)Oc2ccc3c(c2)[C@]2(C)CCO[C@@H]2N3C)cc1`, the IC50 on Acetylcholinesterase worked out at 3860 nM; on Cholinesterase, 17 nM.

As for `Cc1ccccc1NC(=O)Oc1ccc2c(c1)[C@]1(C)CCO[C@@H]1O2`, the IC50 on Cholinesterase is 11400 nM.
